From PMC7972453, “The allosteric modulation of complement C5 by knob domain peptides” (eLife, 2021) come the findings set out here.

Bridges are numbered along the chain shown (N, C = ends). Where no end group is shown, it is not given here.

For one assay, the system named is C5 activation by the CP. The assay is described as follows: Complement activation assays, classical pathway (overall). The format is biochemical. The note with it: C5a release, C5b neo-epitope formation and C9 deposition ELISAs; human serum. Here is the method:
For functional characterisation of the peptides, we performed complement assays for CP and AP activation in human serum, assessing C5b neo-epitope formation and C5a release (schematically presented in Figure 1A, B), in combination with orthogonal ELISAs, measuring C3b and C9 deposition.
(§1) For the C3 and C9 ELISAs, microtiter plates (MaxiSorp; Nunc) were incubated overnight at 4°C with 50 µL of a solution of in 75 mM sodium carbonate (pH 9.6) containing either 2.5 µg/mL aggregated human IgG (Sigma-Aldrich, Gillingham, UK) for CP or 20 µg/mL zymosan (Sigma-Aldrich, Gillingham, UK) for AP. As a negative control, wells were coated with 1% (w/v) bovine serum albumin (BSA)/PBS. […] Complement activation was assessed through detection of deposited complement activation factors using specific antibodies against C3b (rat anti-human C3d HM2198, Hycult, Uden, The Netherlands) and C9 (goat anti-human C9, A226, Complement Technologies Tyler, TX) at a 1:1000 dilution. Bound primary antibodies were detected with […]-conjugated goat anti-rat (ab97057, Abcam, Cambridge, UK) or rabbit anti-goat (P0449, Agilent Dako, Santa Clara, CA) secondary antibodies at a 1:1000 dilution. Bound HRP-conjugated antibodies were detected using TMB One solution (Eco-TEK – manufactured by Bio-TEK, Winooski, VT) with absorbance measured at 450 nm. […]

Assay [1] has as its system classical pathway mediated C9 deposition. The assay is described as follows: Inhibition of classical pathway mediated C9 deposition (ELISA). The format is biochemical, human. The conditions noted are these: CP C9 deposition; 1% serum; n=3; ND* = Not detected. The protocol:
as §1, with “(BSA)/PBS. Microtiter plates were washed four times with 250 µL of wash buffer (50 mM Tris-HCl), 150 mM NaCl and 0.1% Tween 20 (pH 8) between each step of the procedure. Wells were blocked using 250 µL of 1% (w/v) BSA/PBS for 2 hr at room temperature.” for “(BSA)/PBS.”
In general terms: In an ELISA, binding on a coated surface is turned into a signal by an enzyme label.

Assay [2] relates to alternative pathway mediated C9 deposition. The assay is described as follows: Inhibition of alternative pathway mediated C9 deposition (ELISA). The class given is biochemical, human. The conditions noted are these: 5% serum, n=3, ND* = Not detected. The protocol:
as §1, with “(BSA)/PBS. Microtiter plates were washed four times with 250 µL of wash buffer (50 mM Tris-HCl), 150 mM NaCl and 0.1% Tween 20 (pH 8) between each step of the procedure. Wells were blocked using 250 µL of 1% (w/v) BSA/PBS for 2 hr at room temperature.” for “(BSA)/PBS.”

Another assay concerns the target T1, human C5b (Homo sapiens, UniProt P01031).
T1 construct: Upon cleavage of C5a, the remaining domains of the α-chain undergo a substantial conformational change; C5a was removed using a spin column with 30 kDa cut-off; tissue TCS Biosciences (serum); host or cells: human serum; C5 cleaved in house with CVF, factor B and factor D
Kind of assay: SPR single-cycle kinetics, binding to C5b. The protocol: Human C5 was affinity purified using an E141A, H164A OmCI column ([Macpherson et al., 2018]). Briefly, human serum (TCS Biosciences, Botolph Claydon, UK) was diluted 1:1 (v/v) with phosphate buffered saline (PBS), 20 mM ethylenediaminetetraacetic acid (EDTA), and applied to a 5 mL Hi-Trap NHS column (GE Healthcare, Amersham UK), which contained 20 mg of E141A H164A OmCI protein, at a rate of 1 mL/min. The column was washed with 5× column volumes (CV) of PBS, C5 was then eluted using 2 M MgCl2 and immediately dialysed into PBS. C5b was prepared from human C5 by incubating C5 with CVF, factor B and factor D, at a 1:10 molar ratio, as previously described ([Jore et al., 2016]). C5a was removed using a spin column with 30 kDa cut-off (Thermo Fisher Scientific, Horsham, UK).
On a Biacore 8K (GE Healthcare, Amersham, UK), human C5b was immobilised on a CM5 chip (GE Healthcare, Amersham, UK). Flow cells were activated using a standard immobilisation protocol: EDC/NHS was mixed at 1:1 ratio (flow rate, 10 µL/min; contact time, 30 s). C5b, at 1 µg/mL, or C5b-6 (Complement Technologies, Tyler, TX), at 2 µg/mL, in pH 4.5 sodium acetate buffer, were immobilised on flow cell two only (flow rate, 10 µL/min; contact time, 420 s). Finally, ethanolamine was applied to both flow cells (flow rate, 10 µL/min; contact time, 420 s). A final immobilisation level of 500–700 RUs was obtained for C5b and 1000–1150 RUs were obtained for C5b-6. Single-cycle kinetics were measured using a seven-point, threefold serial dilution (spanning a range of 1 µM to 1.4 nM) in HBS-EP buffer (GE Healthcare, Amersham, UK). A high flow rate of 40 µL/min was used, with a contact time of 300 s and a dissociation time of 2700 s. Binding to the reference surface was subtracted, and the data were fitted to a single-site binding model using Biacore evaluation software. All sensorgrams were inspected for evidence of mass transport limitation using the flow rate-independent component of the mass transfer constant (tc).
Table 4.1. SPR single-cycle kinetics of knob domains binding to human C5b.

Usually IC50 stands for the point on the concentration scale where inhibition reaches its midpoint.

T1 sequence (P01031 752-1676 limits assumed): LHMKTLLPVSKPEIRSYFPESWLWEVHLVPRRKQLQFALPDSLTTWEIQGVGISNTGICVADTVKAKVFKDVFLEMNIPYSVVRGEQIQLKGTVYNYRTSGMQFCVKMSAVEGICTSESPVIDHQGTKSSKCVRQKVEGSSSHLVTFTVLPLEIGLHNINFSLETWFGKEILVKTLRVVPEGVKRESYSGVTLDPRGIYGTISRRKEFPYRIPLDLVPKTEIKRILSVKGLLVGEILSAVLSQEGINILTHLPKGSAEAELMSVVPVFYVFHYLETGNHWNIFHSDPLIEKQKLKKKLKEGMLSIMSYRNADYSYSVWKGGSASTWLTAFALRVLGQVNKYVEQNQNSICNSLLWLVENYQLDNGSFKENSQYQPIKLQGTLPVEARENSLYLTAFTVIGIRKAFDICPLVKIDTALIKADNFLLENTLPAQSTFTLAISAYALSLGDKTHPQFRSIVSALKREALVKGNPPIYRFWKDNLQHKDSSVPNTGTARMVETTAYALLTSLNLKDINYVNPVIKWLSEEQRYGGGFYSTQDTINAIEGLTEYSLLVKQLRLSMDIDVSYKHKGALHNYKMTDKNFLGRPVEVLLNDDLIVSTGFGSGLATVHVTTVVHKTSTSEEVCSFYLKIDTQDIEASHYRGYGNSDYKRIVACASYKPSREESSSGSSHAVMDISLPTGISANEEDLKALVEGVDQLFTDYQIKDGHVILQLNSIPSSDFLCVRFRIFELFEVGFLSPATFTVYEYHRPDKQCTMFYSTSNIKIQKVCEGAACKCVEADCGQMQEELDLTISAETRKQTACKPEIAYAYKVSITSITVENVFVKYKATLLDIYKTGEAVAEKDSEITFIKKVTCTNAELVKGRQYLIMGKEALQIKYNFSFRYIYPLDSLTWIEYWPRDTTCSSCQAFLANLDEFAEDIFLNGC
T1 sequence (P01031 19-673 limits assumed): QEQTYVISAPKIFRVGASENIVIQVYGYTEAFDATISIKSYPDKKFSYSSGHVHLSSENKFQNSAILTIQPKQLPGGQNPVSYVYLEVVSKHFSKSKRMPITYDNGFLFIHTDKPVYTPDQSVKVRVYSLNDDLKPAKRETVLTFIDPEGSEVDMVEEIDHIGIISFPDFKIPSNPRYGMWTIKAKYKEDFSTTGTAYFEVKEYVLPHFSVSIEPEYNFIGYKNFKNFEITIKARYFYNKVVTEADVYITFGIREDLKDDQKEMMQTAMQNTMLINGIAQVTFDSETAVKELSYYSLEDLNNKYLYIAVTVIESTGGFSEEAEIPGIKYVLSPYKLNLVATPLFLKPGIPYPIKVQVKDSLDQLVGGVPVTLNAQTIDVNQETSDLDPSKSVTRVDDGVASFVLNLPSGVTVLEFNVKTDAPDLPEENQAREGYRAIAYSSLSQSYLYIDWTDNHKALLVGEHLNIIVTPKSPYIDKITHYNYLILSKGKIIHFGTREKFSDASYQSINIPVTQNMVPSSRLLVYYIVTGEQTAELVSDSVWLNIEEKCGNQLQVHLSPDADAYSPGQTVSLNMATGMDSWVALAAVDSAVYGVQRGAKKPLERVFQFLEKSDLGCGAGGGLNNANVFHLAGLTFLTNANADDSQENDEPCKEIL

As to “SVCPDGFDWGYGCAAGSSRFCTRHDWCCYDERADSHTYGFCTGNRVENLYFQ (disulfide 3-28, 13-21, 27-41) [K8]”, in the assay with C5 activation by the CP, the “inhibition of C5 activation, CP assays (in words)” value is “partially inhibiting both the AP and CP”. Further, the “Average Emax” value in assay [1] is reported as 63.4%; in assay [2] (AP C9 deposition), 73.3%. In addition, in assay [2] (AP, Mg-EGTA pH 7.3, zymosan plate, preincubated on ice 30 min, 60 min 37°C, read-out: Geomean IC50), the IC50 came to 232 nM. Also, the “binding to C5b (in words)” value at human C5b (SPR single-cycle kinetics) is on record as “did not bind C5b”. Besides, the Stoichiometric ratio on human C5b (replicate n=1) is listed as 0.1; at human C5b (replicate n=2) it was 0.1; at human C5b (replicate n=3), 0.2. Moreover, the “comment (binding)” value at human C5b (replicate n=1), at human C5b (replicate n=2), at human C5b (replicate n=3) and at human C5b (summary of n=3) was “Non-binding” each time. Besides, the Mean stoichiometric ratio on human C5b (summary of n=3) came to 0.1.
